Experiments:
Details in all cases: labelled compound
[1] = molecular target: T1, Cdc12-His6 (Saccharomyces cerevisiae, UniProt P32468); experiment: GTPase, phosphate release from γ[…]GTP; format: biochemical
T1 sequence (P32468 1-407): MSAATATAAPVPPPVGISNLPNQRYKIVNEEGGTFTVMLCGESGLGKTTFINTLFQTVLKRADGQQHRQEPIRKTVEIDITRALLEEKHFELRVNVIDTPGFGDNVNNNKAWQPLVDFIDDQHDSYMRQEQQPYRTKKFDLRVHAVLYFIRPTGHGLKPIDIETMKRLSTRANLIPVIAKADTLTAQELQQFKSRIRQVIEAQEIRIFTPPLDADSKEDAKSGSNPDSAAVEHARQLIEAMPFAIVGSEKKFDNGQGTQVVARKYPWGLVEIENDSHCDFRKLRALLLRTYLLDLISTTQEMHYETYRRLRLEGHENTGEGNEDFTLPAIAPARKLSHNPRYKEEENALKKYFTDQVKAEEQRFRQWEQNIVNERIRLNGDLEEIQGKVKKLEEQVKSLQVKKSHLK

[2] = molecular target: His6Cdc12–Cdc3–Cdc10–Cdc11 complex (Saccharomyces cerevisiae, UniProt P25342+P32468); experiment: binding of α[…]GTP to complex on Ni2+-NTA beads
[3] = molecular target: T2, Cdc10 (Saccharomyces cerevisiae, UniProt P25342); experiment: GTPase, phosphate release from γ[…]GTP; format: biochemical
T2 sequence (P25342 1-322): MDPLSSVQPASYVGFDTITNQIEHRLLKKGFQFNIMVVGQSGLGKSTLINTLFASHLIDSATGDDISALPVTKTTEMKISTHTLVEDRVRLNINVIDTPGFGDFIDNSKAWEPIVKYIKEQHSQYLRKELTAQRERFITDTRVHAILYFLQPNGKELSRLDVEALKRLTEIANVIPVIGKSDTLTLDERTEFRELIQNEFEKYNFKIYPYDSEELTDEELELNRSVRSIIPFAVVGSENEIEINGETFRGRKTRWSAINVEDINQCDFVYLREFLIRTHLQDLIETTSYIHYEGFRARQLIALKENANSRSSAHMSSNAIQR

[4] = molecular target: T3, Cdc12ΔC-His6 (Cdc12(Δ339–407)-His6) (Saccharomyces cerevisiae, UniProt P32468); experiment: filter binding of radiolabelled GTPγS
T3 sequence (P32468 1-338): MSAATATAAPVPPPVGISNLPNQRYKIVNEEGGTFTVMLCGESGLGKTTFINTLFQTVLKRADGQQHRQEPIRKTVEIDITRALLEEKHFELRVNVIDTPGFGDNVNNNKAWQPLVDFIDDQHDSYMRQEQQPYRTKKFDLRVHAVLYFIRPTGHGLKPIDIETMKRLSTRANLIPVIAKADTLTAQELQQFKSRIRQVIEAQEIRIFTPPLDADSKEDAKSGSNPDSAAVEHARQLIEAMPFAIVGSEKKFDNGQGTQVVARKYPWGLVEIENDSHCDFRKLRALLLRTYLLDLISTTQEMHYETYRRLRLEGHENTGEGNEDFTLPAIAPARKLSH

[5] = molecular target: T1, Cdc12-His6; experiment: filter binding of radiolabelled GTPγS

Chain of His6Cdc12–Cdc3–Cdc10–Cdc11 complex (P32457 2-520 partner, one chain of several): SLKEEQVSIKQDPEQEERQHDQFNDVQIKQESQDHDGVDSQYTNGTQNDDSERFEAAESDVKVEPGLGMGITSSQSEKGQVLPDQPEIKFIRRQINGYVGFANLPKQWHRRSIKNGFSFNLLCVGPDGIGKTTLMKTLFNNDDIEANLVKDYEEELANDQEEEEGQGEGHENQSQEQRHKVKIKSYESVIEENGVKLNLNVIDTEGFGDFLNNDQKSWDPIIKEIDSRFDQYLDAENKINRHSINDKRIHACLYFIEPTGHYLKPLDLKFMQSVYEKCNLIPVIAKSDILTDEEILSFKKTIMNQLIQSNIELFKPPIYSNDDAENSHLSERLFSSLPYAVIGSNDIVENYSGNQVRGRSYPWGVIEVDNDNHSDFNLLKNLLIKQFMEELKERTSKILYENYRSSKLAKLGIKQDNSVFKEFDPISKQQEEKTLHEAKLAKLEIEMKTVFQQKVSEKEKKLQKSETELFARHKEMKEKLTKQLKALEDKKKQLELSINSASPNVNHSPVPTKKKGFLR
Chain of His6Cdc12–Cdc3–Cdc10–Cdc11 complex (P32458 2-415 partner, one chain of several): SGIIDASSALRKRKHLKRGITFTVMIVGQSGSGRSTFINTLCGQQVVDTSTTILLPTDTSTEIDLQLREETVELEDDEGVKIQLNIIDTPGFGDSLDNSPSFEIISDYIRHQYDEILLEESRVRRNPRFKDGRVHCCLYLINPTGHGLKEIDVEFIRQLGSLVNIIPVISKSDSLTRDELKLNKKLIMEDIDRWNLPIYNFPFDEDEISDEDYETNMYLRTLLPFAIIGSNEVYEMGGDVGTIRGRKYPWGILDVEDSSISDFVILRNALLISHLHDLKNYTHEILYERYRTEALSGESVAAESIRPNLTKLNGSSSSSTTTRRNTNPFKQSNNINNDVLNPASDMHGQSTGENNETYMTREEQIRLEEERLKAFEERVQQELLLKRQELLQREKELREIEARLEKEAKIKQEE

| Structure (SMILES) | GTPase, phosphate release from γ[32P]GTP [1] | binding of α[32P]GTP to complex on Ni2+-NTA beads [2] | GTPase, phosphate release from γ[32P]GTP [3] | filter binding of radiolabelled GTPγS [4] | filter binding of radiolabelled GTPγS [5] |
| --- | --- | --- | --- | --- | --- |
| Nc1nc2c(ncn2[C@@H]2O[C@H](COP(=O)(O)OP(=O)(O)OP(=O)(O)O)[C@@H](O)[C@H]2O)c(=O)[nH]1 [GTP] | Only Cdc10 and Cdc12 displayed detectable GTPase activity above the background control | GTP binding to the His6Cdc12–Cdc3–Cdc10–Cdc11 complex | Only Cdc10 and Cdc12 displayed detectable GTPase activity above the background control | – | – |
| Nc1nc2c(ncn2[C@@H]2O[C@H](COP(=O)(O)OP(=O)(O)OP(O)(O)=S)[C@@H](O)[C@H]2O)c(=O)[nH]1 [GTPγS] | – | – | – | Both full-length Cdc12 and Cdc12ΔC formed stable complexes with GTPγS over time | Both full-length Cdc12 and Cdc12ΔC formed stable complexes with GTPγS over time |

From publication PMC2172161 (The Journal of Cell Biology, 2004)
